Measurements from patent EP4707277A1, “NOVEL HETEROCYCLIC AMINE DERIVATIVES AND PHARMACEUTICAL COMPOSITION COMPRISING SAME” (Daewoong Pharmaceutical Co., Ltd., priority 2023, dated 2024).
Where two headings read alike, the source gives them in different places.

How the values were obtained:
BTK = target: T1, BTK (Homo sapiens, UniProt Q06187); assay: Inhibitory activity against BTK, ADP-Glo Kinase system (Promega); format: biochemical
T1 construct: purchased Signalchem B10-10H
How it was run: (§1)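 IC50 values were fitted from kinase reactions run for 1 h at 30°C with either 1 mM ATP or ATP at Km (10 µM for BTK, 25 µM for ITK). Reactions used 0.2 µg/µl poly(Glu4,Tyr1), recombinant human enzyme (BTK 10 ng, ITK 4 ng per reaction) in Tris pH 7.5 Mn/Mg buffer with 1% DMSO. ADP formed was read by ADP-Glo luminescence.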

ITK = target: T2, ITK (Homo sapiens, UniProt Q08881); assay: Inhibitory activity against ITK, ADP-Glo Kinase system (Promega); format: biochemical
T2 construct: purchased Signalchem I13-11G-10
T2 sequence (Q08881 1-620): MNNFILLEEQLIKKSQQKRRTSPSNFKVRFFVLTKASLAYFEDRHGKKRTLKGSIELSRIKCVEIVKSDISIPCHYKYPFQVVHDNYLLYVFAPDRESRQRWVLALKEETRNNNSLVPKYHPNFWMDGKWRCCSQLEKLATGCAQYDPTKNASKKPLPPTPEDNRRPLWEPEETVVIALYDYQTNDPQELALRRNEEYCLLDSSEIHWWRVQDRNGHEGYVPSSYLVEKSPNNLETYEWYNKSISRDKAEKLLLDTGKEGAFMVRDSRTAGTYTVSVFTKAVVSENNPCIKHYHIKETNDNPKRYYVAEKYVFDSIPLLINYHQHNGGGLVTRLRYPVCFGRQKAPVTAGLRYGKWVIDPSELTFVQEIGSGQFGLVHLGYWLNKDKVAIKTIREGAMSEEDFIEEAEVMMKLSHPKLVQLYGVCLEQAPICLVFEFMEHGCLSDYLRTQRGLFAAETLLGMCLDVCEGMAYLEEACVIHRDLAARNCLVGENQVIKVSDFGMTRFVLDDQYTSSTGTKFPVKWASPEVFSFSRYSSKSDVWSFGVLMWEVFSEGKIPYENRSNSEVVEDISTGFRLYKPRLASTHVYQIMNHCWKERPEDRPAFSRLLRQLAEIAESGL
How it was run: as §1

[1] = 1mM ATP, read-out: BTK IC50(nM) 1mM ATP
[2] = 1mM ATP, read-out: ITK IC50(nM) 1mM ATP
[3] = Km ATP (BTK: 10 uM), read-out: BTK IC50(nM) Km ATP
[4] = Km ATP (ITK: 25uM), read-out: ITK IC50(nM) Km ATP

T1 sequence (Q06187 whole entry): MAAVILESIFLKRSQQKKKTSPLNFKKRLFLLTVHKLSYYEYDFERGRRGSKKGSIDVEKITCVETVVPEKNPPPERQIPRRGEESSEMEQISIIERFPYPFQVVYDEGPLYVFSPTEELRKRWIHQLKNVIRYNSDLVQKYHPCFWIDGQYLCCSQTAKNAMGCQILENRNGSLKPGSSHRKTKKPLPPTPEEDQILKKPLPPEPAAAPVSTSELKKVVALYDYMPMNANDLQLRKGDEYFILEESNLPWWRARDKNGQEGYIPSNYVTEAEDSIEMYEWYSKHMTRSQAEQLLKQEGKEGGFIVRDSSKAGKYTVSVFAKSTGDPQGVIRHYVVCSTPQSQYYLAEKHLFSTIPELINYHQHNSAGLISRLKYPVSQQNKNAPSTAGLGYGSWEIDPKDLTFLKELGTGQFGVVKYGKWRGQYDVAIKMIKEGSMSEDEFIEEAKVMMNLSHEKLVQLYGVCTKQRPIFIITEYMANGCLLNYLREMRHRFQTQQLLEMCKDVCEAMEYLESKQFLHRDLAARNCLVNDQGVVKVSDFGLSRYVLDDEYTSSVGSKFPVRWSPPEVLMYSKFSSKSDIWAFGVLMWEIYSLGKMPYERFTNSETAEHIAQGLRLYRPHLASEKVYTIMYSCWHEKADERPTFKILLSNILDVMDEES

Row | SMILES | IC50 (BTK; [1]) | IC50 (ITK; [2]) | IC50 (BTK; [3]) | IC50 (ITK; [4])
1 | C=CC(=O)N1C[C@@H](Oc2nc(Nc3ncc(C)s3)cc3c2ccn3C2CCCC2)C[C@H]1C [Example 100, 1-((2R,4S)-4-((1-cyclopentyl-6-((5-methylthiazol-2-yl)amino)-1H-pyrrolo[3,2-c]pyridin-4-yl)oxy)-2-methylpyrrolidin-1-yl)prop-2-en-1-one] | ≤ 20 nM | ≤ 20 nM |  | 
2 | C=CC(=O)N1CC[C@H](Oc2nc(Nc3cc(C)ncn3)cc3c2ccn3C(C)C)C1 [Example 101, (S)-1-(3-((1-isopropyl-6-((6-methylpyrimidin-4-yl)amino)-1H-pyrrolo[3,2-c]pyridin-4-yl)oxy)pyrrolidin-1-yl)prop-2-en-1-one] | ≤ 20 nM | 20 to 100 nM |  | 
3 | C=CC(=O)N1CC[C@H](Oc2nc(Nc3cc(OC)ncn3)cc3c2ccn3C(C)C)C1 [Example 103, (S)-1-(3-((1-isopropyl-6-((6-methoxypyrimidin-4-yl)amino)-1H-pyrrolo[3,2-c]pyridin-4-yl)oxy)pyrrolidin-1-yl)prop-2-en-1-one] | ≤ 20 nM | 20 to 100 nM |  | 
4 | C=CC(=O)N1CC[C@H](Oc2nc(Nc3cc(C)ncn3)cc3c2ccn3CC(C)C)C1 [Example 104, (S)-1-(3-((1-isobutyl-6-((6-methylpyrimidin-4-yl)amino)-1H-pyrrolo[3,2-c]pyridin-4-yl)oxy)pyrrolidin-1-yl)prop-2-en-1-one] | 20 to 100 nM | 20 to 100 nM |  | 
5 | C=CC(=O)N1C[C@H](F)[C@H](Oc2nc(Nc3ncc(C)s3)cc3c2ccn3C2CCCC2)C1 [Example 109, 1-((3R,4S)-3-((1-cyclopentyl-6-((5-methylthiazol-2-yl)amino)-1H-pyrrolo[3,2-c]pyridin-4-yl)oxy)-4-fluoropyrrolidin-1-yl)prop-2-en-1-one] | ≤ 20 nM | ≤ 20 nM |  | 
6 | C=CC(=O)N1C[C@@H](F)[C@H](Oc2nc(Nc3ncc(C)s3)cc3c2ccn3C2CCCC2)C1 [Example 110, 1-((3R,4R)-3-((1-cyclopentyl-6-((5-methylthiazol-2-yl)amino)-1H-pyrrolo[3,2-c]pyridin-4-yl)oxy)-4-fluoropyrrolidin-1-yl)prop-2-en-1-one] | ≤ 20 nM | ≤ 20 nM |  | 
7 | C=CC(=O)N1CC[C@H](Oc2nc(Nc3ncc(C)s3)cc3c2ccn3[C@@H](C)CC)C1 [Example 111, 1-((S)-3-((1-((S)-sec-butyl)-6-((5-methylthiazol-2-yl)amino)-1H-pyrrolo[3,2-c]pyridin-4-yl)oxy)pyrrolidin-1-yl)prop-2-en-1-one] | ≤ 20 nM | ≤ 20 nM |  | 
8 | C=CC(=O)N1CC[C@H](Oc2nc(Nc3ncc(C)s3)cc3c2ccn3CCC(C)C)C1 [Example 114, (S)-1-(3-((1-isopentyl-6-((5-methylthiazol-2-yl)amino)-1H-pyrrolo[3,2-c]pyridin-4-yl)oxy)pyrrolidin-1-yl)prop-2-en-1-one] | ≤ 20 nM | ≤ 20 nM |  | 
9 | C=CC(=O)N1CC[C@H](Oc2nc(Nc3ncc(C)s3)cc3c2ccn3Cc2ccccn2)C1 [Example 117, (S)-1-(3-((6-((5-methylthiazol-2-yl)amino)-1-(pyridin-2-ylmethyl)-1H-pyrrolo[3,2-c]pyridin-4-yl)oxy)pyrrolidin-1-yl)prop-2-en-1-one] |  |  | ≤ 20 nM | ≤ 20 nM
10 | C=CC(=O)N1CC(C)(Oc2nc(Nc3ncc(C)s3)cc3c2ccn3CC(C)C)C1 [Example 119, 1-(3-((1-isobutyl-6-((5-methylthiazol-2-yl)amino)-1H-pyrrolo[3,2-c]pyridin-4-yl)oxy)-3-methylazetidin-1-yl)prop-2-en-1-one] |  |  | ≤ 20 nM | ≤ 20 nM
11 | C=CC(=O)N1CC[C@H](Oc2nc(Nc3ncc(C)s3)cc3c2ccn3Cc2ccccc2)C1 [Example 121, (S)-1-(3-((1-benzyl-6-((5-methylthiazol-2-yl)amino)-1H-pyrrolo[3,2-c]pyridin-4-yl)oxy)pyrrolidin-1-yl)prop-2-en-1-one] |  |  | ≤ 20 nM | ≤ 20 nM
12 | C=CC(=O)N1CC[C@H](Oc2nc(Nc3ncc(CC)s3)cc3c2ccn3CC(C)C)C1 [Example 122, (S)-1-(3-((6-((5-ethylthiazol-2-yl)amino)-1-isobutyl-1H-pyrrolo[3,2-c]pyridin-4-yl)oxy)pyrrolidin-1-yl)prop-2-en-1-one] |  |  | ≤ 20 nM | ≤ 20 nM
13 | C=CC(=O)N1CC[C@H](Oc2nc(Nc3ncc(C)s3)cc3c2ccn3CC(C)CC)C1 (stereo partly drawn) [Example 123, 1-((3S)-3-((1-(2-methylbutyl)-6-((5-methylthiazol-2-yl)amino)-1H-pyrrolo[3,2-c]pyridin-4-yl)oxy)pyrrolidin-1-yl)prop-2-en-1-one] |  |  | ≤ 20 nM | ≤ 20 nM
14 | C=CC(=O)N1CC[C@H](Oc2nc(Nc3ncc(C)s3)cc3c2ccn3CCCC)C1 [Example 124, (S)-1-(3-((1-butyl-6-((5-methylthiazol-2-yl)amino)-1H-pyrrolo[3,2-c]pyridin-4-yl)oxy)pyrrolidin-1-yl)prop-2-en-1-one] |  |  | ≤ 20 nM | ≤ 20 nM

The remaining lines, values ahead:

Row | IC50 (BTK; [1]) | IC50 (ITK; [2]) | IC50 (BTK; [3]) | IC50 (ITK; [4]) | SMILES
15 | ≤ 20 nM | ≤ 20 nM |  |  | C=CC(=O)N1C[C@H](F)[C@H](Oc2nc(Nc3ncc(C)s3)cc3c2ccn3CC(C)C)C1 [Example 105, 1-((3S,4R)-3-fluoro-4-((1-isobutyl-6-((5-methylthiazol-2-yl)amino)-1H-pyrrolo[3,2-c]pyridin-4-yl)oxy)pyrrolidin-1-yl)prop-2-en-1-one]
16 | ≤ 20 nM | ≤ 20 nM |  |  | C=CC(=O)N1C[C@@H](F)[C@H](Oc2nc(Nc3ncc(C)s3)cc3c2ccn3CC(C)C)C1 [Example 106, 1-((3R,4R)-3-fluoro-4-((1-isobutyl-6-((5-methylthiazol-2-yl)amino)-1H-pyrrolo[3,2-c]pyridin-4-yl)oxy)pyrrolidin-1-yl)prop-2-en-1-one]
17 | ≤ 20 nM | ≤ 20 nM |  |  | C=CC(=O)N1C[C@H](F)[C@H](Oc2nc(Nc3ncc(C)s3)cc3c2ccn3CC2CC2)C1 [Example 107, 1-((3R,4S)-3-((1-(cyclopropylmethyl)-6-((5-methylthiazol-2-yl)amino)-1H-pyrrolo[3,2-c]pyridin-4-yl)oxy)-4-fluoropyrrolidin-1-yl)prop-2-en-1-one]
18 | ≤ 20 nM | ≤ 20 nM |  |  | C=CC(=O)N1C[C@@H](F)[C@H](Oc2nc(Nc3ncc(C)s3)cc3c2ccn3CC2CC2)C1 [Example 108, 1-((3R,4R)-3-((1-(cyclopropylmethyl)-6-((5-methylthiazol-2-yl)amino)-1H-pyrrolo[3,2-c]pyridin-4-yl)oxy)-4-fluoropyrrolidin-1-yl)prop-2-en-1-one]
19 | ≤ 20 nM | ≤ 20 nM |  |  | C=CC(=O)N1C[C@H](F)[C@H](Oc2nc(Nc3ncc(C)s3)cc3c2ccn3[C@@H](C)CC)C1 [Example 112, 1-((3R,4S)-3-((1-((S)-sec-butyl)-6-((5-methylthiazol-2-yl)amino)-1H-pyrrolo[3,2-c]pyridin-4-yl)oxy)-4-fluoropyrrolidin-1-yl)prop-2-en-1-one]
20 | ≤ 20 nM | ≤ 20 nM |  |  | C=CC(=O)N1C[C@@H](F)[C@H](Oc2nc(Nc3ncc(C)s3)cc3c2ccn3[C@@H](C)CC)C1 [Example 113, 1-((3R,4R)-3-((1-((S)-sec-butyl)-6-((5-methylthiazol-2-yl)amino)-1H-pyrrolo[3,2-c]pyridin-4-yl)oxy)-4-fluoropyrrolidin-1-yl)prop-2-en-1-one]
21 |  |  | ≤ 20 nM | ≤ 20 nM | C=CC(=O)N1C[C@@H](F)[C@H](Oc2nc(Nc3ncc(C)s3)cc3c2ccn3CCC(C)C)C1 [Example 115, 1-((3R,4R)-3-fluoro-4-((1-isopentyl-6-((5-methylthiazol-2-yl)amino)-1H-pyrrolo[3,2-c]pyridin-4-yl)oxy)pyrrolidin-1-yl)prop-2-en-1-one]
22 |  |  | ≤ 20 nM | ≤ 20 nM | C=CC(=O)N1CC(C)C(Oc2nc(Nc3ncc(C)s3)cc3c2ccn3CC(C)C)C1 (stereo not drawn) [Example 116, 1-(3-((1-isobutyl-6-((5-methylthiazol-2-yl)amino)-1H-pyrrolo[3,2-c]pyridin-4-yl)oxy)-4-methylpyrrolidin-1-yl)prop-2-en-1-one]
23 |  |  | 20 to 100 nM | 20 to 100 nM | C=CC(=O)N1CC(Oc2nc(Nc3ncc(C)s3)cc3c2ccn3CC(C)C)C1 [Example 118, 1-(3-((1-isobutyl-6-((5-methylthiazol-2-yl)amino)-1H-pyrrolo[3,2-c]pyridin-4-yl)oxy)azetidin-1-yl)prop-2-en-1-one]
24 |  |  | ≤ 20 nM | ≤ 20 nM | C=CC(=O)N1C[C@@H](F)[C@H](Oc2nc(Nc3ncc(C)s3)cc3c2ccn3CC2(C(F)(F)F)CC2)C1 [Example 120, 1-((3R,4R)-3-fluoro-4-((6-((5-methylthiazol-2-yl)amino)-1-((1-(trifluoromethyl)cyclopropyl)methyl)-1H-pyrrolo[3,2-c]pyridin-4-yl)oxy)pyrrolidin-1-yl)prop-2-en-1-one]
